Experiments:
[1] = test system: control empty vector (EV) HCC1937 cells; experiment: 48 h olaparib dose-response curve, cell viability; format: cell-based; settings: Homo sapiens, HCC1937, 48 h
HCC1937 cells = experiment: Cell culture under Anoikis-inducing conditions, western blot and imaging; format: cell-based, human
Description: Protein extracts were mixed with loading buffer, which consisted of 10 % (v/v) β-mercaptoethanol (Sigma-Aldrich), 10 % SDS, 50 % (v/v) glycerol, 200 mM Tris-HCl pH 6.8 and 0.1 % bromophenol blue (Sigma-Aldrich). They were boiled at 95 °C for 8 min and 20-30 µg protein were loaded into 8, 10 or 15 % acrylamide/bis-acrylamide self-made gels, depending on the molecular weight of the target protein/s to investigate. Gels were run at 80 V for approximately 2 h using a Mini-PROTEAN Tetra electrophoresis system (BioRad), and then transferred to methanol-preactivated polyvinylidene fluoride (PVDF) membranes (Millipore) at 100 V and 4 °C for 1-1.5 h with a Mini Trans-Blot Electrophoretic Transfer Cell (BioRad). Afterwards, membranes with the transferred proteins were stained with ATX Ponceau S red staining solution (Sigma-Aldrich) for 10 min at room temperature, photographed in an Amersham Imager 600 (GE Healthcare) and unstained with distilled water. They were then blocked for 1 h at room temperature with 5 % skim milk (Sigma-Aldrich) diluted in TBST buffer (Tris-buffered saline TBS composed of 20 mM Tris and 150 mM NaCl, supplemented with 0.05 % (v/v) Tween-20, Sigma-Aldrich) with shaking. Next, membranes were incubated overnight at 4 °C with rotation with primary antibodies of interest (see antibody references in Table 3), diluted in 5 % skim milk in TBST. After 4-5 TBST washes (5 min/wash), membranes were incubated for 1 h at room temperature with rotation with secondary antibodies conjugated to horseradish peroxidase (HRP) (see antibody references in Table 3), diluted in 5 % skim milk in TBST. Membranes were rinsed again 4-5 times (5 min/wash) with TBST and the signal was developed with Pierce ECL Western Blotting Substrate (Thermo Fisher Scientific), in either a LAS-3000 Imager (Fujifilm) or an Amersham Imager 600 (GE Healthcare). When necessary, membranes were stripped for 15 min with a pH 2.2 buffer composed of […], 0.5 g SDS and 5 mL Tween20 in 500 mL distilled water. Once stripped, membranes were washed with TBST for 15 min, re-blocked with 5 % skim milk and re-probed with the antibodies of choice. Ponceau staining and western blot images were analysed and their band intensities quantitated with Image J software.
HCC1937 cells were cultured under anchorage-independent growth conditions for 48 h. For this purpose, non-adherent 90 mm polystyrene Petri dishes (Thermo Fisher Scientific) were coated with 10 mg/ml poly-HEMA (Sigma-Aldrich), which makes the dish surface highly repellent to cells, promoting their culture under forced-suspension conditions. […] Images of the cultures were taken at 0 and 48 h, and cell pellets were then collected for western blot analysis.
Anoikis refers to a form of programmed cell death induced by disruption of cell adhesion of normal epithelial cells that detach from the surrounding extracellular matrix. Anoikis resistance has been identified as a hallmark of cancer cells, as survival of normally adherent cells in suspension conditions can enable them to metastasize to distant sites. It has been studied both in the presence and absence of serum; serum deprivation constitutes another way of measuring cell resilience under adverse circumstances, as fetal bovine serum (FBS) contains a variety of growth factors and other elements required for cell survival in culture. When cultured under anchorage-independent/forced suspension conditions for 48 h (Figure 10.C), Cx43_HCC1937 cells formed smaller multicellular aggregates (dashed red lines) than EV_HCC1937, particularly in the absence of FBS.

HCC1937 spheroids = experiment: Three-dimensional tumour spheroid proliferation (spheroid area); format: cell-based, human; settings: for spheroid size, Cx43-restituted smaller than EV counterparts: after 8 days, 3000 initial cell density
Description: The bottom of 96-well flat bottom microplates (Greiner Bio-One) was coated with 1.5 % solution of UltraPure Low Melting Point Agarose (Invitrogen, Thermo Fisher Scientific). Agarose concave bottoms provide non-adhesive conditions and increase cell contacts. 100-200 µL of single-cell suspensions were plated on top of the agarose diluted in their respective media supplemented with 3.5 % Matrigel Matrix Basement Membrane Growth Factor Reduced (Corning) and 5 ng/mL human recombinant EGF (Sigma-Aldrich). Afterwards, plates were incubated under standard cell culture conditions and spheroids were monitored from day 2 onwards by optical microscopy.
Uniform-sized spheroids were produced by plating 3000 EV and Cx43_HCC1937 cells under ultra-low attachment conditions, as well as 5000 Cx43_HCC1937 cells in parallel to account for the expected anti-proliferative effect of Cx43 in untreated tumour cells (day -4) (Figure 7). […] Spheroids were individually tracked during this time and their size was registered every 48 h.
Afterwards, spheroid area measurements were pooled for each condition and EV spheroids were compared against Cx43_HCC1937 spheroids, either those plated at 3000 or 5000 initial cell densities.
Next, Cx43 involvement in the TNBC pathogenesis was studied under more physiological approaches, namely 3D spheroid culture (Figure 10.B) and Anoikis-inducing conditions (Figure 10.C). 3D spheroid culture (Figure 10.B) of HCC1937 cells for 12 days further corroborated the reduction in proliferation determined in 2D culture (Figure 10.A) resulting from Cx43 restoration.

[2] = Cx43_HCC1937, 50 µM olaparib, 48 h Anoikis-inducing conditions
[3] = EV_HCC1937, 50 µM olaparib, 48 h Anoikis-inducing conditions

Structure (SMILES): O=C(c1cc(Cc2n[nH]c(=O)c3ccccc23)ccc1F)N1CCN(C(=O)C2CC2)CC1 [Olaparib, olaparib]
- IC50 [1]: 602 µM
- cell aggregates in suspension (HCC1937 cells; 50 µM olaparib, 48 h, effect more pronounced in Cx43_HCC1937 than EV): partial disintegration of these clusters
- Total protein PARylation (HCC1937 cells; [2]): decrease
- cleaved caspase 3 levels (HCC1937 cells; [2]): further increased this cleavage
- γH2AX (HCC1937 cells; Cx43_HCC1937, 50 µM olaparib, 48 h Anoikis-inducing conditions, absence of serum): further exacerbated this outcome
- Total protein PARylation (HCC1937 cells; [3]): rise
- cleaved caspase 3 levels (HCC1937 cells; [3]): no significant changes
- spheroid appearance (HCC1937 spheroids; Cx43_HCC1937 spheroids (3000 and 5000), 8 days of 600 µM olaparib, vs well-defined EV_HCC1937 spheroids): almost non-existent
- spheroid size, Cx43-restituted smaller than EV counterparts (HCC1937 spheroids; olaparib 200 µM): 41.7%
- spheroid size, Cx43-restituted smaller than EV counterparts (HCC1937 spheroids; olaparib 400 µM): 29.68%
- spheroid size, Cx43-restituted smaller than EV counterparts (HCC1937 spheroids; olaparib 600 µM): 12.57%
